# Test results reported in ChEMBL document CHEMBL1212752, “Efficacy of posaconazole in a murine disseminated infection by Candida tropicalis” (2010).
# The source made the active and inactive calls. The calls are words filed in the database; no cut-off is given here.
# How the values were obtained:
# Candida tropicalis [1] = test: Antifungal activity against Candida tropicalis FMR 10239 infected in immunosuppressed OF1 mouse assessed as reduction in fungal tissue burden in mouse spleen at 25 mg/kg, po bid for 5 days; type: functional, organism-based; parameters: dose 25 mg/kg
# Candida tropicalis [2] = test: Antifungal activity against Candida tropicalis FMR 10237 infected in immunosuppressed OF1 mouse assessed as reduction in fungal tissue burden in mouse spleen at 50 mg/kg, po qd for 5 days; type: functional, organism-based; parameters: dose 50 mg/kg
# Candida tropicalis [3] = test: Antifungal activity against Candida tropicalis FMR 8895 infected in immunosuppressed OF1 mouse assessed as reduction in fungal tissue burden in mouse kidney at 25 mg/kg, po bid for 5 days; type: functional, organism-based; parameters: dose 25 mg/kg
# Candida tropicalis [4] = test: Antifungal activity against Candida tropicalis FMR 10237 infected in immunosuppressed OF1 mouse assessed as reduction in fungal tissue burden in mouse kidney at 25 mg/kg, po bid for 5 days; type: functional, organism-based; parameters: dose 25 mg/kg
# Candida tropicalis [5] = test: Antifungal activity against Candida tropicalis FMR 9727 infected in immunosuppressed OF1 mouse assessed as prolongation of mouse survival at 50 mg/kg, po qd for 5 days; type: functional, organism-based; parameters: dose 50 mg/kg
# Candida tropicalis [6] = test: Antifungal activity against Candida tropicalis FMR 10237 assessed as compound concentration causing =>99% reduction in microbial growth; type: functional
# Candida tropicalis [7] = test: Antifungal activity against Candida tropicalis FMR 8896 assessed as compound concentration causing =>99% reduction in microbial growth; type: functional
# Candida tropicalis [8] = test: Antifungal activity against Candida tropicalis FMR 10333 assessed as inhibition of growth by broth dilution method; type: functional
# Candida tropicalis [9] = test: Antifungal activity against Candida tropicalis FMR 10237 infected in immunosuppressed OF1 mouse assessed as reduction in fungal tissue burden in mouse kidney at 50 mg/kg, po qd for 5 days; type: functional, organism-based; parameters: dose 50 mg/kg
# Candida tropicalis [10] = test: Antifungal activity against Candida tropicalis FMR 10241 assessed as inhibition of growth by broth dilution method; type: functional
# Candida tropicalis [11] = test: Antifungal activity against Candida tropicalis FMR 9727 infected in immunosuppressed OF1 mouse assessed as reduction in fungal tissue burden in mouse kidney at 50 mg/kg, po qd for 5 days; type: functional, organism-based; parameters: dose 50 mg/kg
# Candida tropicalis [12] = test: Antifungal activity against Candida tropicalis FMR 10241 assessed as compound concentration causing =>99% reduction in microbial growth; type: functional
# Candida tropicalis [13] = test: Antifungal activity against Candida tropicalis FMR 8896 assessed as inhibition of growth by broth dilution method; type: functional
# Candida tropicalis [14] = test: Antifungal activity against Candida tropicalis FMR 9726 infected in immunosuppressed OF1 mouse assessed as prolongation of mouse survival at 50 mg/kg, po qd for 5 days; type: functional, organism-based; parameters: dose 50 mg/kg
# Candida tropicalis [15] = test: Antifungal activity against Candida tropicalis FMR 10231 assessed as inhibition of growth by broth dilution method; type: functional
# Candida tropicalis [16] = test: Antifungal activity against Candida tropicalis FMR 10232 assessed as inhibition of growth by broth dilution method; type: functional
# Candida tropicalis [17] = test: Antifungal activity against Candida tropicalis FMR 9726 assessed as compound concentration causing =>99% reduction in microbial growth; type: functional
# Candida tropicalis [18] = test: Antifungal activity against Candida tropicalis FMR 9727 infected in immunosuppressed OF1 mouse assessed as reduction in fungal tissue burden in mouse spleen at 50 mg/kg, po qd for 5 days; type: functional, organism-based; parameters: dose 50 mg/kg
# Candida tropicalis [19] = test: Antifungal activity against Candida tropicalis FMR 8895 infected in immunosuppressed OF1 mouse assessed as prolongation of mouse survival at 50 mg/kg, po qd for 5 days; type: functional, organism-based; parameters: dose 50 mg/kg
# Candida tropicalis [20] = test: Antifungal activity against Candida tropicalis FMR 10240 assessed as inhibition of growth by broth dilution method; type: functional
# Candida tropicalis [21] = test: Antifungal activity against Candida tropicalis FMR 10237 assessed as inhibition of growth by broth dilution method; type: functional
# Candida tropicalis [22] = test: Antifungal activity against Candida tropicalis FMR 10237 infected in immunosuppressed OF1 mouse assessed as reduction in fungal tissue burden in mouse spleen at 25 mg/kg, po bid for 5 days; type: functional, organism-based; parameters: dose 25 mg/kg
# Candida tropicalis [23] = test: Antifungal activity against Candida tropicalis FMR 10239 infected in immunosuppressed OF1 mouse assessed as reduction in fungal tissue burden in mouse kidney at 50 mg/kg, po qd for 5 dayss; type: functional, organism-based; parameters: dose 50 mg/kg
# Candida tropicalis [24] = test: Antifungal activity against Candida tropicalis FMR 8895 infected in immunosuppressed OF1 mouse assessed as reduction in fungal tissue burden in mouse kidney at 50 mg/kg, po qd for 5 days; type: functional, organism-based; parameters: dose 50 mg/kg
# Candida tropicalis [25] = test: Antifungal activity against Candida tropicalis FMR 9727 assessed as compound concentration causing =>99% reduction in microbial growth; type: functional
# Candida tropicalis [26] = test: Antifungal activity against Candida tropicalis FMR 10238 assessed as inhibition of growth by broth dilution method; type: functional
# Candida tropicalis [27] = test: Antifungal activity against Candida tropicalis FMR 10239 infected in immunosuppressed OF1 mouse assessed as reduction in fungal tissue burden in mouse kidney at 25 mg/kg, po bid for 5 dayss; type: functional, organism-based; parameters: dose 25 mg/kg
# Candida tropicalis [28] = test: Antifungal activity against Candida tropicalis FMR 10238 assessed as compound concentration causing =>99% reduction in microbial growth; type: functional
# Candida tropicalis [29] = test: Antifungal activity against Candida tropicalis FMR 9726 infected in immunosuppressed OF1 mouse assessed as prolongation of mouse survival at 25 mg/kg, po bid for 5 days; type: functional, organism-based; parameters: dose 25 mg/kg
# Candida tropicalis [30] = test: Antifungal activity against Candida tropicalis FMR 10231 assessed as compound concentration causing =>99% reduction in microbial growth; type: functional
# Candida tropicalis [31] = test: Antifungal activity against Candida tropicalis FMR 10232 assessed as compound concentration causing =>99% reduction in microbial growth; type: functional
# Candida tropicalis [32] = test: Antifungal activity against Candida tropicalis FMR 10236 assessed as inhibition of growth by broth dilution method; type: functional
structure (smiles),measurement,setting,value
CC[C@@H]([C@H](C)O)n1ncn(-c2ccc(N3CCN(c4ccc(OC[C@@H]5CO[C@@](Cn6cncn6)(c6ccc(F)cc6F)C5)cc4)CC3)cc2)c1=O [POSACONAZOLE],Activity,Candida tropicalis [1],Active
same,Activity,Candida tropicalis [2],Active
same,Activity,Candida tropicalis [3],inactive
same,Activity,Candida tropicalis [4],Active
same,Activity,Candida tropicalis [5],Active
same,MFC,Candida tropicalis [6],> 16 µg/mL
same,MFC,Candida tropicalis [7],> 16 µg/mL
same,MIC50,Candida tropicalis [8],0.06 µg/mL
same,Activity,Candida tropicalis [9],Active
same,MIC50,Candida tropicalis [10],0.125 µg/mL
same,Activity,Candida tropicalis [11],Active
same,MFC,Candida tropicalis [12],> 16 µg/mL
same,MIC50,Candida tropicalis [13],0.125 µg/mL
same,Activity,Candida tropicalis [14],Active
same,MIC50,Candida tropicalis [15],0.06 µg/mL
same,MIC50,Candida tropicalis [16],0.06 µg/mL
same,MFC,Candida tropicalis [17],> 16 µg/mL
same,Activity,Candida tropicalis [18],Active
same,Activity,Candida tropicalis [19],Active
same,MIC50,Candida tropicalis [20],< 0.03 µg/mL
same,MIC50,Candida tropicalis [21],1 µg/mL
same,Activity,Candida tropicalis [22],Active
same,Activity,Candida tropicalis [23],Active
same,Activity,Candida tropicalis [24],inactive
same,MFC,Candida tropicalis [25],> 16 µg/mL
same,MIC50,Candida tropicalis [26],0.06 µg/mL
same,Activity,Candida tropicalis [27],Active
same,MFC,Candida tropicalis [28],> 16 µg/mL
same,Activity,Candida tropicalis [29],Active
same,MFC,Candida tropicalis [30],> 16 µg/mL
same,MFC,Candida tropicalis [31],> 16 µg/mL
same,MIC50,Candida tropicalis [32],0.06 µg/mL
